According to patent US5998521A, “Aqueous fluoropolymer compositions and method of preparing the same” (3M Innovative Properties Company, priority 1996, dated 1999):

Experiments:
[1] = Thermal degradation in aqueous media; type: physicochemical; details: for volatile products formed: aqueous, approximately 80° C. for several hours, or similar way
Protocol: The thermal degradation of an aqueous α-branched perfluoroalkylcarbonyl fluoride and the characterization of the products produced from the degradation were carried out using the following procedure. […] 5.7 g of volatile degradation products were then collected by azeotropic distillation using a Dean-Stark apparatus.
The thermal degradation of C7 F15 CF(CF3)COF (from Example A4) dispersed in water was also carried out by heating the aqueous mixture for several hours at approximately 80° C.

[2] = Emulsion copolymerization of hexafluoropropylene and vinylidene fluoride
Source text: The following procedure was used to evaluate C7 F15 CF(CF3)COO^- NH4^+ (from Ex. M1) as an emulsifier to copolymerize hexafluoropropylene (HFP) and vinylidene fluoride.
A 1 gallon, vertically agitated stainless steel reactor with pressure and temperature controls was evacuated and twice purged with nitrogen. Using an isolated vacuum, a solution comprised of 2 g of ammonium persulfate (initiator) and 6 g of dipotassium phosphate dissolved in 2800 g of deionized water was introduced into the reactor. The remaining vacuum on the reactor was vented with nitrogen, and the solution was degassed twice under agitation using alternate vacuum and nitrogen purges. A sufficient amount of a solution of C7 F15 CF(CF3)COO^- NH4^+ in approximately 20 g of 60-70° C. deionized water was introduced to the reactor under isolated vacuum to give a calculated final concentration of 350 ppm emulsifier in the aqueous solution. The reactor was vented with nitrogen, the solution was agitated very briefly, and the reactor was evacuated of nitrogen and isolated. Then the reactor was vented with hexafluoropropylene monomer to a pressure of approximately 10 psig (1280 torr total pressure), and the temperature of the batch was raised to 72° C. with high agitation. Maintaining the temperature at 72° C., a monomer mixture of 60% (wt) of vinylidene fluoride and 40% (wt) hexafluoropropylene was fed from a tared gas cylinder into the head space of the reactor to maintain a reactor pressure of 130 psig (7480 total pressure). After feeding in about 1 kg of monomer blend (approximately 3.75 hours duration), the introduction of monomer was ceased, the reaction was allowed to cool to room temperature, and any residual unreacted monomer was vented.
The resulting latex polymer was drained from the reactor, and percent solids of the latex was determined to be 25% by weight as measured by drying 10 g of latex in a forced air oven for 16 hours at 105° C.
The reactor body was separated from the reactor head, and a visual inspection of the reactor was made to determine the amount of coagulated polymer in the reactor (the amount should be minimal in a good polymerization reaction). A qualitative rating was assessed, ranging from "none" to "little" to "some."
The latex stability was determined by half filling a 16 oz (450 mL) jar with latex and shaking several hours in the horizontal position, quantitatively rating the latex after shaking using a 3-point scale ranging from 0=very stable to 3=unstable.
Particle size in the latex was determined using 90° scattering on a Coulter sub-micron particle size analyzer.
Degree of foaming was rated using the following qualitative scale: 0=not foamy, 1=slightly foamy, 2=moderately foamy, and 3=very foamy.
In Example P2, the same experiment was run as in Example P1, except that the concentration of C7 F15 CF(CF3)COO^- NH4^+emulsifier was raised to 3500 ppm, the reaction time decreased from 3.75 to 3.5 hours, and the reaction temperature increased from 72° C. to 78° C.
In Comparative Examples P3-P6, the same experiment was run as in Example P1, except that C8 F17 SO2 N(C2 H5)CH2 COO^- K^+ (Fluorad™ FC-128 Fluorochemical Surfactant, available from 3M Company, St. Paul, Minn.), C7 F15 COO^- H4 N^+ (Fluorad™ FC-143 Fluorochemical Surfactant), and Surflon™ S111S Fluorochemical Surfactant (believed to be nominally telomer-based n-C9 F19 COO^- H4 N^+, commercially available from Asahi Glass Corp., Japan) were substituted for C7 F15 CF(CF3)COO^- HN^+ emulsifier.

[3] = Acute LD50, one-time feeding study of rats over 21 days; type: in vivo, rat; details: rat, in vivo, po; one-time feeding, rats, 21 day period
Protocol: (§1) Acute LD50 measurements for a one-time feeding study of rats were determined over a 21 day period for both the α-branched perfluorocarboxylate salt, C7 F15 CF(CF3)COO^- NH4^+, and its straight chain isomer, CF3 (CF2)8 COO^- NH4^+.

[4] = tested on: rats; test: as above; type: in vivo, rat; details: for acute toxicity: rat, in vivo
Protocol: as §1

[5] = tested on: rats; details: Goeche-Flora et al.; cited from earlier work
[6] = Surface tension and critical micelle concentration of aqueous surfactant solutions; type: physicochemical; details: Table 5, deionized water; for Surf. Tens.: at the CMC
Protocol: Critical Micelle Concentration (CMC): The critical micelle concentration is defined as the concentration at which further surface tension is no longer lowered with increasing levels of surfactant. To determine CMC, surface tension is measured as a function of surfactant concentration using a K-12 Processor Tensiometer in conjunction with a 665 Dosimat automatic surfactant injection device (also commercially available from Kruss GmbH). Surface tension is then plotted vs. log concentration and the data points are connected. The resulting curve has a nearly horizontal flat portion at concentrations above the CMC and has a negative steep slope at concentrations below the CMC. The CMC is defined as the lowest surfactant concentration in the horizontal flat portion of the curve.
(§2) Then the critical micelle concentration (CMC) was determined for each surfactant.
as §2

[7] = Thermogravimetric analysis of neat perfluorocarboxylate salts; type: physicochemical; details: neat salt, nitrogen, 10° C./min
Source text: Thermal degradation measurements were made on a series of neat perfluorocarboxylate salts, including several α-branched open chain structures (Examples N2-N9), a primarily linear open chain structure (Example N10-Fluorad™ FC-143 Fluorochemical Surfactant, commercially available from 3M Company, St. Paul, Minn.), and a closed chain (i.e., cyclic) structure (Example N11--made by the electrochemical fluorination of benzoic acid and hydrolysis in the presence of KOH, as described in U.S. Pat. No. 2,567,011 (Diesslin et al.)).
The perfluorocarboxylate salts were tested using a Perkin-Elmer TGA 7 thermogravimetric analysis apparatus and a salt sample size of approximately 5 mg, a heating rate of 10° C./min, and a nitrogen gas flow rate of 40-45 mL/min. Using the TGA 7 software, the following temperatures were recorded: (1) the onset temperature of decomposition, (2) the temperature at which 50% of the sample weight was lost, and (3) the temperature at which 90% of the sample weight was lost.

[8] = tested on: rats; test: Rat desiccator jar chamber test, exhaled degradation products; type: in vivo
Protocol: Additional biological testing of C7 F15 CF(CF3)COO^- NH4^+ in rats was conducted using the following test apparatus. An uptake desiccator jar chamber was designed with top and bottom portions, the top portion equipped with an inlet port, an outlet port, oxygen monitor and pressure gage. An oxygen gas tank supplied oxygen into the inlet port, and the oxygen level in the chamber was maintained at a normal ambient level as measured by the oxygen monitor and pressure gage. The outlet port was connected in series with a carbon dioxide scrubber and particulate filter, which in turn was connected to a loop containing a stainless steel bellows pump operating at about 2 L/min. Most of the gas in the loop was recycled into the inlet port, but about 100 mL/min was directed through a secondary loop to a gas chromatograph equipped with a 0.5 mL gas sampling loop.
A rat dosed at 500 mg/kg was placed in the bottom portion of the chamber, the top portion was attached, and the assembled chamber was placed in an ice-filled pan to allow for the condensation of water. The oxygen flow was started, and the exhaust gases were monitored for the presence of CF3 CF=CF(C6 F13) and C7 F15 CFHCF3, aqueous degradation products of C7 F15 CF(CF3)COOH, using known standards of this olefin and hydride in the gas chromatograph. […] After 24 minutes, one slight chromatographic peak was noted, corresponding to the monohydride. After 92 minutes, the peak became noticeably larger and a second peak formed, corresponding to the olefin.

[9] = Hydrolytic stability of esters in concentrated aqueous ammonium hydroxide; type: physicochemical; details: 2 days
Source text: The acrylate and methacrylate esters from Examples D1-D11 were fully recoverable with essentially no degradation after being stirred with concentrated aqueous ammonium hydroxide for a period of 2 days.

[10] = Degradation in aqueous solution at room temperature over 1 year; type: physicochemical
Protocol: The α-branched open chain ammonium salt compounds from Examples N3-N6 were dissolved in deionized water at a concentration of 5% by weight (0.5 g ammonium salt in 10 mL water) and were stored at room temperature.

For `O=C(O)C(F)(C(F)(F)F)C(F)(F)C(F)(F)C(F)(F)C(F)(F)C(F)(F)C(F)(F)C(F)(F)F` (centres unmarked) [Example M1, C7 F15 CF(CF3)COOH], the “volatile products formed” value [1] was “the same monohydride and olefin”.
For `CCN(CC(=O)O)S(=O)(=O)C(F)(F)C(F)(F)C(F)(F)C(F)(F)C(F)(F)C(F)(F)C(F)(F)C(F)(F)F` [Fluorad ™ FC-128, C8 F17 SO2 N(C2 H5)CH2 COO^- K^+], the “Latex Stability” value ([2]; emulsifier 100 ppm) was 2 and the “Latex Stability” value ([2]; emulsifier 350 ppm) was 0.
For `O=C(F)C(F)(C(F)(F)F)C(F)(F)C(F)(F)C(F)(F)C(F)(F)C(F)(F)C(F)(F)C(F)(F)F` (centres unmarked) [Example A4, C7 F15 CF(CF3)COF], the “volatile products formed” value [1] was “The same volatile products were formed as in Example N1”, the “volatile degradation products collected” value ([1]; from 8 g, refluxed in deionized water 2 hours) was 5.7 g and the “monohydride in volatile degradation products” value ([1]; in water) was 85%. For the same molecule, the “olefin in volatile degradation products” value ([1]; in water) was 15%.
In the case of `O=C(O)C(F)(F)C(F)(F)C(F)(F)C(F)(F)C(F)(F)C(F)(F)C(F)(F)C(F)(F)C(F)(F)F` [C9 F19 COO^- NH4^+, CF3 (CF2)8 COO^- NH4^+, reference compound], the LD50 at 504 h [3] is reported as 50 to 100 mg/kg, the “acute toxicity” value [4] is reported as “moderately toxic” and the wasting syndrome ([4]; rats) is reported as “Wasting syndrome was observed”. For the same molecule, the “toxicity relative to the α-branched isomer” value ([4]; rats, LD50) was “ca. 10 times” and the “toxicity (literature, words)” value [5] was “moderately toxic”.
In the case of `O=C(O)C(F)(C(F)(F)F)C(F)(F)C(F)(F)C(F)(F)C(F)(F)C(F)(F)C(F)(F)C(F)(F)F` (centres unmarked) [Example M14, C7 F15 CF(CF3)COO^- H4 N^+], the “Surf. Tens.” value [6] is reported as 16.5 dynes/cm, the CMC [6] is reported as 2500 ppm and the “Temperature for: 50% loss” value [7] is reported as 163 °C. The “Temperature for: 90% loss” value [7] was 174 °C, the “Temperature for: Onset” value [7] was 151 °C and the LD50 at 504 h [3] was 500 to 1000 mg/kg. The “acute toxicity” value ([4]; listed as C7 F15 CF(CF3)COO^- NH4) was “relatively low toxicity”, the “acute toxicity” value ([4]; listed as C7 F15 CF(CF3)COO^- NH4+) was “only slightly toxic” and the “time of deaths from toxic doses” value ([4]; rats) was 2 to 3 days. The “time until rats began regaining weight” value ([4]; rats) was 3 days, the wasting syndrome ([4]; rats) was “No wasting syndrome was noted” and the “olefin and monohydride in exhaust gas” value ([8]; after 217 minutes) was “both peaks became significantly larger”. The “olefin and monohydride in exhaust gas” value ([8]; initially) was “no olefin or hydride were detected”, the metabolism and elimination ([8]; rat) was “being metabolized by the rat to volatile metabolites which were eliminated from the rat via transpiration” and the post-exposure observation ([8]; rat dosed at 500 mg/kg) was “no evidence of toxicity (death) or evidence of wasting syndrome”. The “time at which monohydride peak noted in exhaust gas” value ([8]; rat dosed at 500 mg/kg) was 24 min, the “time at which olefin peak formed in exhaust gas” value ([8]; rat dosed at 500 mg/kg, monohydride peak noticeably larger) was 92 min and the “Latex Stability” value ([2]; emulsifier 350 ppm) was 2. For the same molecule, the “Latex Stability” value ([2]; emulsifier 3500 ppm) was 0.
For `O=C(O)C(F)(C(F)(F)F)C(F)(F)C(F)(F)C(F)(F)C(F)(F)C(F)(F)F` (centres unmarked) [Example M21, C5 F11 CF(CF3)COO^- K^+], the “Surf. Tens.” value [6] was 22.5 dynes/cm, the CMC [6] was > 10000 ppm and the “Temperature for: 50% loss” value ([7]; listed as N9) was 178 °C. The “Temperature for: 90% loss” value ([7]; listed as N9) was 188 °C and the “Temperature for: Onset” value ([7]; listed as N9) was 167 °C.
In the case of `C=CC(=O)OCCOC(=O)C(F)(F)C(F)(F)C(F)(F)C(F)(F)C(F)(F)C(F)(F)C(F)(F)F` [C7 F15 COOCH2 CH2 OCOCH=CH2], the hydrolytic stability [9] is reported as “readily hydrolyzed”.
With `O=C(O)C(F)(F)C(F)(F)C(F)(F)C(F)(F)C(F)(F)C(F)(F)C(F)(F)F` [FC-143, C7 F15 COO^- H4 N^+] the “Surf. Tens.” value [6] was 21.5 dynes/cm, the CMC [6] was 8000 ppm and the “Temperature for: 50% loss” value [7] was 188 °C. For the same molecule, the “Temperature for: 90% loss” value [7] was 202 °C, the “Temperature for: Onset” value [7] was 173 °C and the “degradation after 1 year” value [10] was “no signs of degradation”. The “Latex Stability” value ([2]; emulsifier 350 ppm) was 2.
